Assay results published in patent US20150346214A1, “DETECTION OF MEMBRANE PROTEINS” (priority 2012, published 2015).

Assays:
[1] = biological target: E. coli ammonium channel C-terminally fused to green fluorescent protein (AmtB-GFP) (Escherichia coli, UniProt P69681, S65T); settings: AmtB-GFP trimer in MS buffer with 2x CMC of the detergent; charge state envelopes modelled with a Gaussian
Experimental: The activation energy required to achieve resolved peaks of E. coli ammonium channel C-terminally fused to green fluorescent protein (AmtB-GFP) was assessed for a variety of non-ionic detergents.
AmtB-GFP was extracted from purified membranes (described above) with 1-2% (w/v) of the detergent of interest in Buffer B and incubated for one to three hours at room temperature or overnight at 4° C. Insoluble material was pelleted by centrifugation at 20,000 g for 25 minutes at 4° C. The clarified supernatant was loaded onto small Ni-NTA agarose (Qiagen) drip columns (Bio-spin Chromatography columns, Bio-Rad) and washed with several column volumes of Buffer C (200 mM sodium chloride, 20 mM Imidazole, 5 mM BME, 2× CMC detergent of interest, and 50 mM TRIS, pH 8.0 at room temperature). AmtB-GFP was eluted with two column volumes of Buffer D (100 mM sodium chloride, 250 mM Imidazole, 5 mM BME, 2× CMC detergent of interest, and 50 mM TRIS, pH 8.0 at room temperature). Eluted protein was concentrated using a 100 kDa MWCO concentrator and buffer exchanged into MS Buffer (2× CMC detergent of interest and 200 mM Ammonium Acetate, pH 8.0 with Ammonium Hydroxide) using a centrifugal buffer exchange device (Micro Bio-Spin 6, Bio-Rad).
Buffer exchanged protein was analysed on a Q-TOF 2 mass spectrometer (Micromass, Manchester, UK) with a Z-spray source including modifications for protein complexes after introduction of complexes from gold-coated nanoflow capillaries.

[2] = biological target: T1, mechanosensitive channel of large conductance (MscL) (Mycobacterium tuberculosis, UniProt P9WJN5); experiment: Phospholipid binding to MscL resolved by native MS / IM-MS in C8E4; settings: optimised P:L:D ratio of Table 2
T1 sequence (P9WJN5 1-151): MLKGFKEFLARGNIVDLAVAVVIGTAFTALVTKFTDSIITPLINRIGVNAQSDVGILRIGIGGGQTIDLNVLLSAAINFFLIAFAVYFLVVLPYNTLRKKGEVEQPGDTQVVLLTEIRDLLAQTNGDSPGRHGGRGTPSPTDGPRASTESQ

ammonia channel (AmtB) = ammonia channel (AmtB) (Escherichia coli, UniProt P69681); experiment: Phospholipid binding to AmtB resolved by native MS / IM-MS in C8E4; set-up: species or system E. coli; settings: AmtB in C8E4; optimised P:L:D ratio of Table 2
Aquaporin Z (AQPZ) = Aquaporin Z (AQPZ) (Escherichia coli, UniProt P60844); experiment: Phospholipid binding to AQPZ resolved by native MS / IM-MS in C8E4; set-up: species or system E. coli; settings: for # Bound (number of resolvable phospholipids bound): AQPZ in C8E4, optimised P:L:D ratio of Table 2
Chain of Aquaporin Z (AQPZ) (P60844 whole entry): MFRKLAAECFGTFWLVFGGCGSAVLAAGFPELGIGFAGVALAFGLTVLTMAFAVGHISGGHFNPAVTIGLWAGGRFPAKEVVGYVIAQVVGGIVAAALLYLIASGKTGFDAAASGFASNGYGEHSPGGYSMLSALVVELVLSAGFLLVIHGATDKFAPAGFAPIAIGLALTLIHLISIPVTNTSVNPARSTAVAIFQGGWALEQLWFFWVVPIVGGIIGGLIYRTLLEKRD

## polyoxyethylene (20) cetyl ether [C16E20]
[1]
  Zavg (mean charge state): 25.0

## CCCC/C=C\CCCCCCCC(=O)OC[C@H](COP(=O)([O-])OCC[N+](C)(C)C)OC(=O)CCCCCCC/C=C\CCCC (stereo in doubt) [DMPC, 1,2-dimyristoleoyl-sn-glycero-3-phosphocholine (14:1 Cis)]
[2]
  # Bound (number of resolvable phospholipids bound): 2

## CCCCCCCCS[C@@H]1O[C@H](CO)[C@@H](O)[C@H](O)[C@H]1O [OTG, n-Octyl-β-D-thioglucopyranoside]
[1]
  Zavg (mean charge state): 31.9

## polyoxyethylene (8) dodecyl ether [C12E8]
[1]
  Zavg (mean charge state): 25.8

## CCCCCC/C=C\CCCCCCCC(=O)OC[C@H](COP(=O)([O-])OCC[N+](C)(C)C)OC(=O)CCCCCCC/C=C\CCCCCC (stereo in doubt) [DPPC, 1,2-dipalmitoleoyl-sn-glycero-3-phosphocholine (16:1 Cis)]
[2]
  # Bound (number of resolvable phospholipids bound): 2

## Octyl Glucose Neopentyl Glycol [OGNG]
[1]
  Zavg (mean charge state): 27.9

## CCCCCCCCCCO[C@@H]1O[C@H](CO)[C@@H](O[C@H]2O[C@H](CO)[C@@H](O)[C@H](O)[C@H]2O)[C@H](O)[C@H]1O [DM, n-Decyl-β-D-maltoside]
[1]
  Zavg (mean charge state): 31.4

## CCCCCCCCO[C@@H]1O[C@H](CO)[C@@H](O)[C@H](O)[C@H]1O [OG, n-Octyl-β-D-glucopyranoside]
[1]
  Zavg (mean charge state): 31.2

## CCCCCCCC/C=C\CCCCCCCCCCCC(=O)OC[C@H](COP(=O)([O-])OCC[N+](C)(C)C)OC(=O)CCCCCCCCCCC/C=C\CCCCCCCC (stereo in doubt) [DEPC, 1 ,2-dierucoyl-sn-glycero-3-phosphocholine (22:1 Cis)]
[2]
  # Bound (number of resolvable phospholipids bound): 2

## CCCCCCCC/C=C\CCCCCCCC(=O)OC[C@H](COP(=O)([O-])OCC[N+](C)(C)C)OC(=O)CCCCCCC/C=C\CCCCCCCC (stereo in doubt) [DOPC, 1,2-dioleoyl-sn-glycero-3-phosphocholine (18:1 Cis)]
[2]
  # Bound (number of resolvable phospholipids bound): 2

## polyethylene glycol tert-octylphenyl ether [TX100]
[1]
  Zavg (mean charge state): 21.6

## OC[C@H]1O[C@H](O[C@H]2[C@H](O)[C@@H](O)[C@H](OCCCCCCC3CCCCC3)O[C@@H]2CO)[C@H](O)[C@@H](O)[C@@H]1O [Cy6, Cymal-6]
[1]
  Zavg (mean charge state): 30.5

## OC[C@H]1O[C@H](O[C@H]2[C@H](O)[C@@H](O)[C@H](OCCCCCC3CCCCC3)O[C@@H]2CO)[C@H](O)[C@@H](O)[C@@H]1O [Cy5, Cymal-5]
[1]
  Zavg (mean charge state): 31.3

## CCCCCCCC/C=C\CCCCCCCCCC(=O)OC[C@H](COP(=O)([O-])OCC[N+](C)(C)C)OC(=O)CCCCCCCCC/C=C\CCCCCCCC (stereo in doubt) [DIPC, 1,2-dieicosenoyl-sn-glycero-3-phosphocholine (20:1 Cis)]
[2]
  # Bound (number of resolvable phospholipids bound): 2

## 1-palrnitoyl-2-oleoyl-sn-glycero-3-phosphocholine (16:0-18:1) [PC]
[2]
  # Bound (number of resolvable phospholipids bound): 3
Ammonia channel (AmtB)
  # Bound (number of resolvable phospholipids bound): 3
Aquaporin Z (AQPZ)
  # Bound (number of resolvable phospholipids bound): 3
Aquaporin Z (AQPZ); AQPZ tetramer, mass spectra and ion mobility (FIG. 9)
  bound phospholipid molecules: up to four
Aquaporin Z (AQPZ); AQPZ, collision voltage 130 V (FIG. 6a)
  bound phospholipid molecules resolved: one to six

## CCCCCCCC/C=C\CCCCCCCC(=O)OC[C@H](COP(=O)(O)O[C@H]1C(O)C(O)C(O)[C@@H](OP(=O)(O)O)C1O)OC(=O)CCCCCCC/C=C\CCCCCCCC (some centres unmarked) [PI]
[2]
  # Bound (number of resolvable phospholipids bound): 4

## L-α-phosphatidylethanolamine (E. coli) [PE]
[2]
  # Bound (number of resolvable phospholipids bound): 1
Ammonia channel (AmtB)
  # Bound (number of resolvable phospholipids bound): 2
Aquaporin Z (AQPZ)
  # Bound (number of resolvable phospholipids bound): 1

## CCCCCCCCCCCCS[C@@H]1O[C@H](CO)[C@@H](O[C@H]2O[C@H](CO)[C@@H](O)[C@H](O)[C@H]2O)[C@H](O)[C@H]1O [DDTM, n-Dodecyl-β-D-thiomaltopyranoside]
[1]
  Zavg (mean charge state): 30.0

## CCCCCCCC/C=C\CCCCCCCCCCCCCC(=O)OC[C@H](COP(=O)([O-])OCC[N+](C)(C)C)OC(=O)CCCCCCCCCCCCC/C=C\CCCCCCCC (stereo in doubt) [DNPC, 1,2-dinervonoyl-sn-glycero-3-phosphocholine (24:1 Cis)]
[2]
  # Bound (number of resolvable phospholipids bound): 2

## CCCCCCCCCCCOC1OC(CO)C(OC2OC(CO)C(O)C(O)C2O)C(O)C1O [UDM, n-Undecyl-β-D-maltoside]
[1]
  Zavg (mean charge state): 30.3
